In patent US10844077B2, “Thiazolyl-containing compounds for treating proliferative diseases” (Dana-Farber Cancer Institute, Inc., priority 2014, dated 2020):

Assays:
BTK = BTK (Homo sapiens (Human), UniProt Q06187); assay: BTK inhibitory activity; format: biochemical
BCWM.1 = assay: CellTiter-Glo Luminescent cell viability assay; format: cell-based; conditions: cell survival, 72 hours
Method: (§1) The inhibitory activities of exemplary compounds described herein against select protein kinases and cells were determined. Cell survival following treatment of exemplary compounds described herein was assessed by CellTiter-Glo® Luminescent cell viability assay (Promega). The cells were seeded into 384 well plates with the EL406 Combination Washer Dispenser (BioTek Instruments, Inc.), and a series diluted exemplary compounds (20˜0.0006 μM) were injected into the culture media with the JANUS Automated Workstation (PerkinElmer Inc.). The cells were treated for 72 hours at 37° C. with 5% CO2. Luminescent measurement is performed using the 2104 Envision® Multilabel Reader (PerkinElmer Inc.). EC50 values were calculated with […] PRISM software.

HBL-1 = assay: CellTiter-Glo Luminescent cell viability assay; format: cell-based; conditions: cell survival, 72 hours
Method: as §1

MWCL-1 = assay: CellTiter-Glo Luminescent cell viability assay; format: cell-based; conditions: cell survival, 72 hours
Method: as §1

TMD-8 = assay: CellTiter-Glo Luminescent cell viability assay; format: cell-based; conditions: cell survival, 72 hours
Method: as §1

OCI-Ly19 = assay: CellTiter-Glo Luminescent cell viability assay; format: cell-based; conditions: cell survival, 72 hours
Method: as §1

OCI-Ly3 = assay: CellTiter-Glo Luminescent cell viability assay; format: cell-based; conditions: cell survival, 72 hours
Method: as §1

Ramos = assay: CellTiter-Glo Luminescent cell viability assay; format: cell-based; conditions: cell survival, 72 hours
Method: as §1

OCI-Ly7 = assay: CellTiter-Glo Luminescent cell viability assay; format: cell-based; conditions: cell survival, 72 hours
Method: as §1

HCK = HCK (Homo sapiens (Human), UniProt P08631); assay: HCK inhibitory activity; format: biochemical
OPM-2 = assay: CellTiter-Glo Luminescent cell viability assay; format: cell-based; conditions: Homo sapiens, cell survival, 72 hours
Method: as §1

RPMI-8226 = assay: CellTiter-Glo Luminescent cell viability assay; format: cell-based; conditions: Homo sapiens, cell survival, 72 hours
Method: as §1

Chain of BTK (Q06187 whole entry, looked up): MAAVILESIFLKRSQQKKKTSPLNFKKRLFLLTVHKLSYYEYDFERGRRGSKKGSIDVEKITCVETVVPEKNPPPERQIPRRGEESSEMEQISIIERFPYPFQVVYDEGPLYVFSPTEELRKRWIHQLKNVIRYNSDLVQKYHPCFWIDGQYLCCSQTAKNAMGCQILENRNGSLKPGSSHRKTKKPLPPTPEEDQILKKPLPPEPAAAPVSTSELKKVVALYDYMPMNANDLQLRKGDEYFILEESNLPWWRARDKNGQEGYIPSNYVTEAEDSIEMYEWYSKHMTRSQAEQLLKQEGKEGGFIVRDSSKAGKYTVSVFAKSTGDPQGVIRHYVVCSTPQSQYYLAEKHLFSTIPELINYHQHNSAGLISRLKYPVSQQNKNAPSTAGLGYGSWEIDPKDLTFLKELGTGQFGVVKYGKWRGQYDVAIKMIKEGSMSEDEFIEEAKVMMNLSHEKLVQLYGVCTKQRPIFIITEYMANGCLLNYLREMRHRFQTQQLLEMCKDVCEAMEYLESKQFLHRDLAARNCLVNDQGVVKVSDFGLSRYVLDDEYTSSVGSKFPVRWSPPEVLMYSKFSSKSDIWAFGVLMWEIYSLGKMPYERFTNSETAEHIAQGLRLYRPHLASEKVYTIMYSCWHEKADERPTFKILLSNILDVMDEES
Chain of HCK (P08631 whole entry): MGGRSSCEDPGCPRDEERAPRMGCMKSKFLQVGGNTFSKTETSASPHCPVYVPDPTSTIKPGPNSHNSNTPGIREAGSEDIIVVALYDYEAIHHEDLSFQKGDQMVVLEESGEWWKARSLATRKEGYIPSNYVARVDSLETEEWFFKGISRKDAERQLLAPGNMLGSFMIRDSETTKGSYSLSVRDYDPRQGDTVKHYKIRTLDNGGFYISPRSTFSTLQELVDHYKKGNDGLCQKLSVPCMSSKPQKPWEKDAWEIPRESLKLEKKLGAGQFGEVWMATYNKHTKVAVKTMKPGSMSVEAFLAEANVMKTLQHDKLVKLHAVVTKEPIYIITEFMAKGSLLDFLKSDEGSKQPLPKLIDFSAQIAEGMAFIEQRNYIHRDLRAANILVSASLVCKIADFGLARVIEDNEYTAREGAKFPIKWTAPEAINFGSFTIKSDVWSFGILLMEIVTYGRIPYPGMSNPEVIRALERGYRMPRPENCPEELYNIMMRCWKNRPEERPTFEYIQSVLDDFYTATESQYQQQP

Row | Compound | IC50 (BTK) | EC50 (BCWM.1) | EC50 (HBL-1) | EC50 (MWCL-1) | EC50 (TMD-8) | EC50 (OCI-Ly19) | EC50 (OCI-Ly3) | EC50 (Ramos) | EC50 (OCI-Ly7) | IC50 (HCK) | EC50 (BCWM.1; BCWM1) | EC50 (HBL-1; HBL1) | EC50 (OCI-Ly19; Homo sapiens, OCI-LY19) | EC50 (OCI-Ly3; Homo sapiens, OCI-Ly3) | EC50 (OCI-Ly7; Homo sapiens, OCI-Ly7) | EC50 (OPM-2) | EC50 (RPMI-8226) | EC50 (Ramos; Homo sapiens, Ramos) | EC50 (TMD-8; Homo sapiens, TMD8)
1 | C=CC(=O)N1CC[C@H](Nc2nc(CN3CCOCC3)cc(Nc3ncc(C(=O)Nc4c(C)cccc4C)s3)n2)C1 [Compound I-2] | 1.63 nM | 41 nM | 1670 nM | 67 nM | 311 nM | > 20000 nM | > 20000 nM | > 20000 nM |  |  |  |  |  |  |  |  |  |  | 
2 | C=CC(=O)N1CC[C@H](Nc2nccc(Nc3ncc(C(=O)Nc4c(C)cccc4C)s3)n2)C1 [Compound I-3] | 0.6 nM | 19.3 nM | 669 nM | 55.2 nM | 158 nM | 13000 nM | 39500 nM | > 20000 nM | 370 nM |  |  |  |  |  |  |  |  |  | 
3 | C=CC(=O)N1CC[C@@H](Nc2nccc(Nc3ncc(C(=O)Nc4c(C)cccc4C)s3)n2)C1 [Compound I-4] | 1.38 nM | 53 nM | 449 nM | 85 nM | 315 nM | 4270 nM |  | > 20000 nM |  |  |  |  |  |  |  |  |  |  | 
4 | C=CC(=O)N1CCC[C@@H](Nc2nccc(Nc3ncc(C(=O)Nc4c(C)cccc4C)s3)n2)C1 [Compound I-6] | 1.9 nM | 69.6 nM | 229 nM | 93.7 nM | 80.2 nM |  |  |  | 520 nM |  |  |  |  |  |  |  |  |  | 
5 | C=CC(=O)N1CCCCC(Nc2nccc(Nc3ncc(C(=O)Nc4c(C)cccc4C)s3)n2)C1 (stereo not drawn) [Compound I-7] | < 0.495 nM | 22 nM | 70 nM | 19 nM | 49 nM | 399 nM |  | 133 nM |  | < 0.495 nM |  |  |  |  |  |  |  |  | 
6 | C=CC(=O)N1CCC(CNc2nccc(Nc3ncc(C(=O)Nc4c(C)cccc4C)s3)n2)C1 (stereo not drawn) [Compound I-8] | < 0.495 nM | 75 nM | 522 nM | 103 nM | 301 nM | 3770 nM |  | 7970 nM |  | < 0.495 nM |  |  |  |  |  |  |  |  | 
7 | CCC(=O)N1CC[C@H](Nc2nccc(Nc3ncc(C(=O)Nc4c(C)cccc4C)s3)n2)C1 [Compound I-9] | 0.5 nM | 9.84 nM | 220 nM | 25 nM | 70.9 nM | 10000 nM | 14500 nM | > 20000 nM |  | < 0.495 nM |  |  |  |  |  |  |  |  | 
8 | C=CC(=O)N1CC[C@H](Nc2nccc(Nc3ncc(C(=O)Nc4c(C)cccc4Cl)s3)n2)C1 [Compound I-10] | 1.74 nM | 170 nM | 1640 nM | 191 nM | 1010 nM | 5700 nM |  | 12 nM |  |  |  |  |  |  |  |  |  |  | 
9 | C=CC(=O)N1CCCC(Nc2nc(CN3CCOCC3)cc(Nc3ncc(C(=O)Nc4c(C)cccc4C)s3)n2)C1 (stereo not drawn) [Compound I-12] |  | 75.5 nM | 1200 nM | 317 nM | 453 nM |  |  |  | 309 nM |  |  |  |  |  |  |  |  |  | 
10 | Cc1nc(Nc2ncc(C(=O)Nc3c(C)cccc3Cl)s2)cc(N2CCN(CCO)CC2)n1 [Dasatinib, dasatinib, reference compound] |  |  |  | 7.41 nM |  |  |  |  |  |  | 1.2 nM | 190 nM | 3860 nM | 8060 nM | 155 nM | 7110 nM | 5390 nM | 4560 nM | 18.7 nM
11 | C=CC(=O)N1CCCC(Cn2ccc(Nc3ncc(C(=O)Nc4c(C)cccc4Cl)s3)n2)C1 (stereo not drawn) [II-2] | < 0.495 nM | 196 nM | 1000 nM | 166 nM | 929 nM | 6540 nM |  | > 20000 nM |  |  |  |  |  |  |  |  |  |  | 
12 | C=CC(=O)N1CC[C@H](Nc2nccc(Nc3nc4ccc(Oc5ccccc5)nc4s3)n2)C1 [III-1] | 86.6 nM | 1830 nM | 3200 nM | 4080 nM | 3850 nM | 1250 nM |  | 3700 nM |  |  |  |  |  |  |  |  |  |  | 
13 | C=CC(=O)N1CC[C@@H](Nc2nccc(Nc3nc4ccc(Oc5ccccc5)nc4s3)n2)C1 [III-2] | 281 nM | 916 nM | 2960 nM | 1350 nM | 2640 nM | 1100 nM |  | 2300 nM |  |  |  |  |  |  |  |  |  |  | 
14 | C=CC(=O)N1CCC[C@@H](Nc2nccc(Nc3nc4ccc(Oc5ccccc5)nc4s3)n2)C1 [III-4] | 367 nM | 808 nM | 2550 nM | 2160 nM | 2120 nM | 1170 nM |  | 2190 nM |  |  |  |  |  |  |  |  |  |  | 

Second part, led by results:

Row | IC50 (BTK) | Compound | EC50 (BCWM.1) | EC50 (HBL-1) | EC50 (MWCL-1) | EC50 (TMD-8) | EC50 (OCI-Ly19) | EC50 (OCI-Ly3) | EC50 (Ramos) | EC50 (OCI-Ly7) | IC50 (HCK) | EC50 (BCWM.1; BCWM1) | EC50 (HBL-1; HBL1) | EC50 (OCI-Ly19; Homo sapiens, OCI-LY19) | EC50 (OCI-Ly3; Homo sapiens, OCI-Ly3) | EC50 (OCI-Ly7; Homo sapiens, OCI-Ly7) | EC50 (OPM-2) | EC50 (RPMI-8226) | EC50 (Ramos; Homo sapiens, Ramos) | EC50 (TMD-8; Homo sapiens, TMD8)
15 | 1.61 nM | C=CC(=O)N1CC[C@H](Nc2nc(CN3CCOCC3)cc(Nc3ncc(C(=O)Nc4c(C)cccc4Cl)s3)n2)C1 [Compound I-1] | 73.4 nM | 522 nM | 50 nM | 301 nM |  |  |  |  |  |  |  |  |  |  |  |  |  | 
16 | 5.52 nM | C=CC(=O)N1CCCCC(Nc2nccc(Nc3ncc(C(=O)Nc4c(C)cccc4Cl)s3)n2)C1 (stereo not drawn) [Compound I-11] | 129 nM | 623 nM | 245 nM | 500 nM | 3680 nM |  | 1580 nM |  |  |  |  |  |  |  |  |  |  | 
17 | 19.9 nM | C=CC(=O)N1CCC(n2cc(Nc3ncc(C(=O)Nc4c(C)cccc4Cl)s3)cn2)CC1 [II-3] | 690 nM | 3650 nM | 772 nM | 2540 nM | 9970 nM |  | > 20000 nM |  |  |  |  |  |  |  |  |  |  | 
18 | 19.4 nM | C=CC(=O)N1CCC[C@H](Nc2nccc(Nc3nc4ccc(Oc5ccccc5)nc4s3)n2)C1 [III-3] | 2710 nM | 2960 nM | 5750 nM | 4130 nM | 2500 nM |  | 8460 nM |  |  |  |  |  |  |  |  |  |  | 
19 | 9.06 nM | C=CC(=O)N1CCCCC(Nc2nccc(Nc3nc4ccc(Oc5ccccc5)nc4s3)n2)C1 (stereo not drawn) [III-5] | 1190 nM | 896 nM | 3370 nM | 1230 nM | 1330 nM |  | 2720 nM |  |  |  |  |  |  |  |  |  |  | 
20 | 2580 nM | Cn1ccc(Nc2nc3ccc(Oc4ccccc4)nc3s2)n1 [III-6] | 270 nM | 450 nM | 2170 nM | 467 nM | 321 nM |  | 749 nM |  |  |  |  |  |  |  |  |  |  | 
21 | > 10000 nM | Cn1cc(Nc2nc3ccc(Oc4ccccc4)nc3s2)cn1 [III-7] | > 20000 nM | > 20000 nM | > 20000 nM | > 20000 nM | 9520 nM |  | > 20000 nM |  | > 10000 nM |  |  |  |  |  |  |  |  | 
22 | > 10000 nM | c1ccc(Oc2ccc3nc(Nc4cnn(C5CCOCC5)c4)sc3n2)cc1 [III-8] | 7250 nM | > 20000 nM | > 20000 nM | 14600 nM | 12600 nM |  | > 20000 nM |  | > 10000 nM |  |  |  |  |  |  |  |  | 
23 | 2660 nM | c1ccc(Oc2ccc3nc(Nc4cnn(C5CCNCC5)c4)sc3n2)cc1 [III-9] | 8290 nM | > 20000 nM | 16600 nM | 18300 nM | 7060 nM |  | 11800 nM |  |  |  |  |  |  |  |  |  |  | 
